Results from patent US20230142789A1, “A SWEETENER OR SWEETNESS ENHANCER COMPOSITION” (ANALYTICON DISCOVERY GMBH, priority 2020, published 2023).

Assay: Organoleptic test of the compounds against sucrose
Assay type: in vivo
Set-up: key: 3: sweeter than the control solution; 2: sweetness comparable with the control solution; 1: less sweet than the control solution but still sweet
Conditions: 0.4 mg/ml (400 ppm) in non-carbonated mineral water vs sucrose 20 g/l; panel of 3-4 panelists
Protocol: The isolated pure compound was dissolved in non-carbonated mineral water (“Evian”) in a concentration of 0.4 mg/ml (400 ppm). The sweet taste of each sample was compared by a panel of 3-4 panelists with a solution of sucrose in a concentration of 20 g/I.

Compound	Sweetness
11-Oxoisomogroside V [11-Isomogroside V]	3
C[C@H](CC[C@@H](O[C@@H]1O[C@H](CO[C@@H]2O[C@H](CO)[C@@H](O)[C@H](O)[C@H]2O)[C@@H](O)[C@H](O)[C@H]1O[C@@H]1O[C@H](CO)[C@@H](O)[C@H](O)[C@H]1O)C(C)(C)O)[C@H]1CC[C@@]2(C)[C@@H]3CC=C4C(CC[C@H](O[C@@H]5O[C@H](CO[C@@H]6O[C@H](CO[C@@H]7O[C@H](CO)[C@@H](O)[C@H](O)[C@H]7O)[C@@H](O)[C@H](O)[C@H]6O)[C@@H](O)[C@H](O)[C@H]5O)C4(C)C)[C@]3(C)[C@H](O)C[C@]12C (some centres unmarked) [Mogroside Via]	3
